Measurements reported in patent US9090621B2, “Tyrosine kinase inhibitors” (Principia Biopharma Inc., priority 2013, dated 2015).

Test system: protein target
Test: Reversibility of Binding (compound in solution before and after perturbation of the target, HPLC-MS/MS)
Conditions: after denaturation with 5 M guanidine hydrochloride and digestion with trypsin
Protocol: The following approach was developed to differentiate compounds that form irreversible bonds with their targets, such as acrylamide compounds, from compound that bind reversibly. […] The reactions were then treated with perturbations including both denaturation with 5 M guanidine hydrochloride and digestion with trypsin, disrupting proper folding of the target. […] The concentration of compound in solution was assessed both preceding and following perturbation using high performance liquid chromatography (HPLC) coupled to tandem mass spectrometry.
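For IC50 in this document: Read-out is the quantity of phosphorylated substrate product formed, and IC50 reflects inhibition of Btk kinase activity.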

Row | SMILES | Compound in solution in the denatured or digested state?
1 | N#CC(=CC1CC1)C(=O)N1CCC[C@@H](n2cc(-c3ccc(Oc4ccccc4)cc3)c3c(N)ncnc32)C1 [Example 27, (R)-2-(3-(4-amino-5-(4-phenoxyphenyl)-7H-pyrrolo[2,3-d]pyrimidin-7-yl)piperidine-1-carbonyl)-3-cyclopropylacrylonitrile] | yes
2 | C=CC(=O)N1CCC[C@@H](n2nc(-c3ccc(Oc4ccccc4)cc3)c3c(N)ncnc32)C1 [acrylamide-containing compound 1, reference compound] | depleted from solution in both the native and perturbed state

Same assay, conditions: protein target at a higher concentration than the compound; before perturbation

Row | SMILES | Compound in solution in the native state?
3 | N#CC(=CC1CC1)C(=O)N1CCC[C@@H](n2cc(-c3ccc(Oc4ccccc4)cc3)c3c(N)ncnc32)C1 [Example 27, (R)-2-(3-(4-amino-5-(4-phenoxyphenyl)-7H-pyrrolo[2,3-d]pyrimidin-7-yl)piperidine-1-carbonyl)-3-cyclopropylacrylonitrile] | depleted in the folded state and no
4 | C=CC(=O)N1CCC[C@@H](n2nc(-c3ccc(Oc4ccccc4)cc3)c3c(N)ncnc32)C1 [acrylamide-containing compound 1, reference compound] | depleted from solution in both the native and perturbed state

Biological target: T1, human recombinant Btk (Homo sapiens (Human), UniProt Q06187)
T1 sequence (Q06187 whole entry): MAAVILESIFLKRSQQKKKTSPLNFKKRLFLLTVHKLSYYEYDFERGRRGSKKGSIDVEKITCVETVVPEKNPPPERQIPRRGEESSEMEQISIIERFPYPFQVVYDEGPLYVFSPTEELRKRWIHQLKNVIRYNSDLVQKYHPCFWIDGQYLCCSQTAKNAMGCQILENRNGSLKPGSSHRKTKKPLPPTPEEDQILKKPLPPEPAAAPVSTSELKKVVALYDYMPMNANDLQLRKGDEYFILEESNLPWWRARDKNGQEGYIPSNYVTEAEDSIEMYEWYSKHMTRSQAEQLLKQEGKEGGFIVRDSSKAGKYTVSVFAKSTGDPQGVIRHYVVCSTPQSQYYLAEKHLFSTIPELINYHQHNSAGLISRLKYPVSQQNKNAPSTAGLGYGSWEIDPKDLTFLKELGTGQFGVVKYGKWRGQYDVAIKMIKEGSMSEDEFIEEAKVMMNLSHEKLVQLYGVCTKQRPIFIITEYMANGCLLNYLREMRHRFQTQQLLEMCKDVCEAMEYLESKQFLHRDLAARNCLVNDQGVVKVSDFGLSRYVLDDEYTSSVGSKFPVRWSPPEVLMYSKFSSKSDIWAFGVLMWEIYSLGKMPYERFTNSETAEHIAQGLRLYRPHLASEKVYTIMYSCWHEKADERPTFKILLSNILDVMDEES
Test: not given
Conditions: Caliper-based kinase assay; human recombinant Btk 2 nM, ATP 40 μM, peptide substrate 1 μM, room temperature 3 h

Row | IC50 | SMILES
5 | 0.4 nM | CCNC(C)(C)C=C(C#N)C(=O)N1CCCC1Cn1nc(-c2ccc(Oc3ccccc3)cc2F)c2c(N)ncnc21 (stereo in doubt) [Example 85A, (S)-2-(2-((4-amino-3-(2-fluoro-4-phenoxyphenyl)-1H-pyrazolo[3,4-d]pyrimidin-1-yl)methyl)pyrrolidine-1-carbonyl)-4-(ethylamino)-4-methylpent-2-enenitrile]
6 | 17.2 nM | CCNC(C)(C)C=C(C#N)C(=O)N1CCCC1Cn1nc(-c2ccc(Oc3ccccc3)cc2F)c2c(N)ncnc21 (stereo in doubt) [Example 85B, (R)-2-(2-((4-amino-3-(2-fluoro-4-phenoxyphenyl)-1H-pyrazolo[3,4-d]pyrimidin-1-yl)methyl)pyrrolidine-1-carbonyl)-4-(ethylamino)-4-methylpent-2-enenitrile]
7 | 7.3 nM | CCOC(C)(C)C=C(C#N)C(=O)N1CCC[C@@H](n2nc(-c3ccc(Oc4cccc(F)c4F)cc3F)c3c(N)ncnc32)C1 [Example 156A, (R)-2-(3-(4-amino-3-(4-(2,3-difluorophenoxy)-2-fluorophenyl)-1H-pyrazolo[3,4-d]pyrimidin-1-yl)piperidine-1-carbonyl)-4-ethoxy-4-methylpent-2-enenitrile]
8 | 0.9 nM | CC(C)(C=C(C#N)C(=O)N1CCC[C@@H](n2nc(-c3ccc(Oc4cccc(F)c4F)cc3F)c3c(N)ncnc32)C1)N1CCOCC1 [Example 162A, (R)-2-(3-(4-amino-3-(4-(2,3-difluorophenoxy)-2-fluorophenyl)-1H-pyrazolo[3,4-d]pyrimidin-1-yl)piperidine-1-carbonyl)-4-methyl-4-morpholinopent-2-enenitrile]
9 | 34 nM | CC(C)(C)C=C(C#N)C(=O)N1CCC[C@@H]1Cn1cc(-c2ccc(Oc3cccc(F)c3F)cc2)c2c(N)ncnc21 [Example 173B]
10 | 32.5 nM | CC1(C=C(C#N)C(=O)N2CCC[C@H]2Cn2nc(-c3ccc(Oc4ccccc4)cc3F)c3c(N)ncnc32)COC1 [Example 197B]

The next lines start with the compound.

Row | SMILES | IC50
11 | CC(C)(C)C=C(C#N)C(=O)NC1CCC(n2nc(-c3ccc(NC(=O)c4ccc(C(F)(F)F)cc4)cc3)c3c(N)ncnc32)CC1 (centres unmarked) [8 (Cpd Table 2), N-(4-(4-amino-1-((1r,4r)-4-(2-cyano-4,4-dimethylpent-2-enamido)cyclohexyl)-1H-pyrazolo[3,4-d]pyrimidin-3-yl)phenyl)-4-(trifluoromethyl)benzamide] | > 1000 nM
12 | CC(C)(C)C=C(C#N)C(=O)NC1CCC(n2nc(-c3ccc(NC(=O)c4ccc(C(F)(F)F)cc4)cc3)c3c(N)ncnc32)CC1 (centres unmarked) [10 (Cpd Table 2), N-(4-(4-amino-1-((1s,4s)-4-(2-cyano-4,4-dimethylpent-2-enamido)cyclohexyl)-1H-pyrazolo[3,4-d]pyrimidin-3-yl)phenyl)-4-(trifluoromethyl)benzamide] | > 1000 nM
13 | NC(=O)C(=CC1CC1)C(=O)N1CCC[C@@H](n2nc(-c3ccc(Oc4cccc(F)c4)cc3)c3c(N)ncnc32)C1 [Example 15A, (R)-2-(3-(4-amino-3-(4-(3-fluorophenoxy)phenyl)-1H-pyrazolo[3,4-d]pyrimidin-1-yl)piperidine-1-carbonyl)-3-cyclopropylacrylamide] | 1.7 nM
14 | N#CC(=CC1CC1)C(=O)N1CCCC1Cn1nc(-c2ccc(Oc3ccccc3)cc2)c2c(N)ncnc21 (centres unmarked) [Example 22B] | 2.6 nM
15 | N#CC(=CC1CC1)C(=O)N1CCC[C@@H]1Cn1nc(-c2ccc(Oc3cccc(F)c3)cc2)c2c(N)ncnc21 [Example 24A, (R)-2-(2-((4-amino-3-(4-(3-fluorophenoxy)phenyl)-1H-pyrazolo[3,4-d]pyrimidin-1-yl)methyl)pyrrolidine-1-carbonyl)-3-cyclopropylacrylonitrile] | 6.2 nM
16 | NC(=O)C(=CC1CC1)C(=O)N1CCC[C@@H](n2nc(-c3ccc(Oc4c(F)cccc4F)cc3)c3c(N)ncnc32)C1 [Example 36A, (R)-2-(3-(4-amino-3-(4-(2,6-difluorophenoxy)phenyl)-1H-pyrazolo[3,4-d]pyrimidin-1-yl)piperidine-1-carbonyl)-3 cyclopropylacrylamide] | 4.3 nM
17 | N#CC(=CC1CC1)C(=O)N1CCC[C@H]1Cn1cc(-c2ccc(Oc3ccccc3)cc2F)c2c(N)ncnc21 [Example 59B, (S)-2-(2-((4-amino-5-(2-fluoro-4-phenoxyphenyl)-7H-pyrrolo[2,3-d]pyrimidin-7-yl)methyl)pyrrolidine-1-carbonyl)-3-cyclopropylacrylonitrile] | 26 nM
18 | CC(C)(CNC(=O)C(C#N)=CC1CC1)Cn1nc(-c2ccc(Oc3ccccc3)cc2)c2c(N)ncnc21 [Example 67, N-(3-(4-amino-3-(4-phenoxyphenyl)-1H-pyrazolo[3,4-d]pyrimidin-1-yl)-2,2-dimethylpropyl)-2-cyano-3-cyclopropylacrylamide] | 27 nM
19 | CC(C)(N)C=C(C#N)C(=O)N1CCC[C@H]1Cn1nc(-c2ccc(Oc3cccc(F)c3)cc2F)c2c(N)ncnc21 [Example 72B, (S)-4-amino-2-(2-((4-amino-3-(2-fluoro-4-(3-fluorophenoxy)phenyl)-1H-pyrazolo[3,4-d]pyrimidin-1-yl)methyl)pyrrolidine-1-carbonyl)-4-methylpent-2-enenitrile] | 28 nM

Biological target: T1, human recombinant Btk
Test: biochemical
Conditions: not given

Row | IC50 | SMILES
20 | 11 nM | CC(C)C=C(C#N)C(=O)N1CCC[C@H]1Cn1nc(-c2ccc(Oc3cccc(F)c3)cc2F)c2c(N)ncnc21 [Example 73B, (S)-2-(2-((4-amino-3-(2-fluoro-4-(3-fluorophenoxy)phenyl)-1H-pyrazolo[3,4-d]pyrimidin-1-yl)methyl)pyrrolidine-1-carbonyl)-4-methylpent-2-enenitrile]
21 | 100 nM | CC(C)C=C(C#N)C(=O)N1CCC[C@H]1Cn1nc(-c2ccc(Oc3c(F)cccc3F)cc2)c2c(N)ncnc21 [Example 75B, (S)-2-(2-((4-amino-3-(4-(2,6-difluorophenoxy)phenyl)-1H-pyrazolo[3,4-d]pyrimidin-1-yl)methyl)pyrrolidine-1-carbonyl)-4-methylpent-2-enenitrile]
22 | 7 nM | CC(C)C=C(C#N)C(=O)N1CCC[C@H]1Cn1nc(-c2ccc(Oc3cccc(F)c3F)cc2)c2c(N)ncnc21 [Example 76B, (S)-2-(2-((4-amino-3-(4-(2,3-difluorophenoxy)phenyl)-1H-pyrazolo[3,4-d]pyrimidin-1-yl)methyl)pyrrolidine-1-carbonyl)-4-methylpent-2-enenitrile]
23 | 11 nM | C[C@@H](Cn1nc(-c2ccc(Oc3ccccc3)cc2F)c2c(N)ncnc21)NC(=O)C(C#N)=CC(C)(C)N(C)C [Example 185B, (S)-N-(1-(4-amino-3-(2-fluoro-4-phenoxyphenyl)-1H-pyrazolo[3,4-d]pyrimidin-1-yl)propan-2-yl)-2-cyano-4-(dimethylamino)-4-methylpent-2-enamide]

The remaining lines, values behind:

Row | SMILES | IC50
24 | CC(C)(C)C=C(C#N)C(=O)N1CCC[C@@H](n2nc(-c3ccc(Oc4ccccc4)cc3)c3c(N)ncnc32)C1 [29 A, (R)-2-(3-(4-amino-3-(4-phenoxyphenyl)-1H-pyrazolo[3,4-d]pyrimidin-1-yl)piperidine-1-carbonyl)-4,4-dimethylpent-2-enenitrile] | 2.7 nM
25 | N#CC(=CC1CC1)C(=O)N1CCC[C@@H]1Cn1nc(-c2ccc(Oc3cc(F)cc(F)c3)cc2)c2c(N)ncnc21 [Example 25A, (R)-2-(2-((4-amino-3-(4-(3,5-difluorophenoxy)phenyl)-1H-pyrazolo[3,4-d]pyrimidin-1-yl)methyl)pyrrolidine-1-carbonyl)-3-cyclopropylacrylonitrile] | 9.6 nM
26 | N#CC(=CC1CC1)C(=O)N1CCC[C@H]1Cn1nc(-c2ccc(Oc3cc(F)cc(F)c3)cc2)c2c(N)ncnc21 [Example 25B, (S)-2-(2-((4-amino-3-(4-(3,5-difluorophenoxy)phenyl)-1H-pyrazolo[3,4-d]pyrimidin-1-yl)methyl)pyrrolidine-1-carbonyl)-3-cyclopropylacrylonitrile] | 140 nM
27 | N#CC(=CC1CC1)C(=O)N1CCC[C@@H]1Cn1nc(-c2ccc(Oc3c(F)cccc3F)cc2)c2c(N)ncnc21 [Example 32A, (R)-2-(2-((4-amino-3-(4-(2,6-difluorophenoxy)phenyl)-1H-pyrazolo[3,4-d]pyrimidin-1-yl)methyl)pyrrolidine-1-carbonyl)-3-cyclopropylacrylonitrile] | 1.7 nM
28 | N#CC(=CC1CC1)C(=O)N1CCC[C@@H]1Cn1nc(-c2ccc(Oc3cc(F)cc(F)c3)cc2F)c2c(N)ncnc21 [Example 41A, (R)-2-(2-((4-amino-3-(2-fluoro-4-(3,5-difluorophenoxy)phenyl)-1H-pyrazolo[3,4-d]pyrimidin-1-yl)methyl)pyrrolidine-1-carbonyl)-3-cyclopropylacrylonitrile] | 3.2 nM
29 | Cc1cc(Oc2ccccc2)ccc1-c1nn(C[C@H]2CCCN2C(=O)C(C#N)=CC2CC2)c2ncnc(N)c12 [Example 69A, (R)-2-(2-((4-amino-3-(2-methyl-4-phenoxyphenyl)-1H-pyrazolo[3,4-d]pyrimidin-1-yl)methyl)pyrrolidine-1-carbonyl)-3-cyclopropylacrylonitrile] | 5 nM
